Measured values taken from ChEMBL document CHEMBL5291721, “A preclinical secondary pharmacology resource illuminates target-adverse drug reaction associations of marketed drugs” (Nat Commun, 2023).

Key:
Histamine H2 receptor = Histamine H2 receptor (Homo sapiens, UniProt P25021); assay type: functional, cell-based
[1] = biological target: T1, Type-1 angiotensin II receptor (Homo sapiens, UniProt P30556)
T1 sequence (P30556 whole entry): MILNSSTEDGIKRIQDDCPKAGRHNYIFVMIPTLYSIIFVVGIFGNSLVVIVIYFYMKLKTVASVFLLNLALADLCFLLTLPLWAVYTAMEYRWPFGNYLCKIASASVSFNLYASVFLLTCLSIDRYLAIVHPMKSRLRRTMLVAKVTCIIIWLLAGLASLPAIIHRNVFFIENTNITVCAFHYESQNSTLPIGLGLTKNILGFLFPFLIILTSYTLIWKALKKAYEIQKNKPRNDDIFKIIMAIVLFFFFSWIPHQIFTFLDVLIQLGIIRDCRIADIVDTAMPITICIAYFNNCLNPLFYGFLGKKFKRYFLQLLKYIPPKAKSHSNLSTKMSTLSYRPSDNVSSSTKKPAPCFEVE

Thromboxane A2 receptor = biological target: T2, Thromboxane A2 receptor (Homo sapiens, UniProt P21731)
T2 sequence (P21731 whole entry): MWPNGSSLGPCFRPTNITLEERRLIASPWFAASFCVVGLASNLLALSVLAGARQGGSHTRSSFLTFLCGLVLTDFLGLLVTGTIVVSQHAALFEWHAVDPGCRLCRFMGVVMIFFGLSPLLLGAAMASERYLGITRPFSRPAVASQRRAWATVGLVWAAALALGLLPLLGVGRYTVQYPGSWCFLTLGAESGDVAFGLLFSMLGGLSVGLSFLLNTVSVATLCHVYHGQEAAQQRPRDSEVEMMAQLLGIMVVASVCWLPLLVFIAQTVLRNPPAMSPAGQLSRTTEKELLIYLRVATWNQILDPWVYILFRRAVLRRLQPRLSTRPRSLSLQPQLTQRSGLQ

[2] = biological target: T3, Alpha-2C adrenergic receptor (Homo sapiens, UniProt P18825); assay type: functional
T3 sequence (P18825 whole entry): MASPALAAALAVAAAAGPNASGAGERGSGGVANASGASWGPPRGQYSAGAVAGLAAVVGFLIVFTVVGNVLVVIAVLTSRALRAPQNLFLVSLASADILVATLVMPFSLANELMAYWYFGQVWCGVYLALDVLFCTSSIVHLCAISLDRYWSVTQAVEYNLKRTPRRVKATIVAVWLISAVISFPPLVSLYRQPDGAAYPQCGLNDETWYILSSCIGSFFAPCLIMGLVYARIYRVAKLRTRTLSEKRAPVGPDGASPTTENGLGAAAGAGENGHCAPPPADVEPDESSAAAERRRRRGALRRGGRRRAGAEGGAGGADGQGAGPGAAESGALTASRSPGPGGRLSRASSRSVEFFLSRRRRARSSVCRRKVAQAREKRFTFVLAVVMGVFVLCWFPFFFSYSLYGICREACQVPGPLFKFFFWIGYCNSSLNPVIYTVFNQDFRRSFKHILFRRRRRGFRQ

[3] = biological target: T4, Cholecystokinin receptor type A (Homo sapiens, UniProt P32238)
T4 sequence (P32238 whole entry): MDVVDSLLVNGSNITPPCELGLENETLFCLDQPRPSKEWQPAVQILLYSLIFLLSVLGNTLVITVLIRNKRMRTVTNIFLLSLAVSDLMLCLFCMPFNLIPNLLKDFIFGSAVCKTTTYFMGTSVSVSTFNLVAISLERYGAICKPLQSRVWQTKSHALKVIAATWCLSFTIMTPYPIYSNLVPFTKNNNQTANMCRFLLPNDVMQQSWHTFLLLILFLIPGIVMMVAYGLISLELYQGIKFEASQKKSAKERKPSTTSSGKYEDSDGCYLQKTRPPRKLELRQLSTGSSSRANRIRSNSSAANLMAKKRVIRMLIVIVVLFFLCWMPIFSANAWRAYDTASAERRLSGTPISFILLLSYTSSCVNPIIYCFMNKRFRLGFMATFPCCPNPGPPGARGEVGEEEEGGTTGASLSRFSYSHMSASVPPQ

[4] = biological target: T5, Muscarinic acetylcholine receptor M2 (Homo sapiens, UniProt P08172); assay type: functional, cell-based
T5 sequence (P08172 whole entry): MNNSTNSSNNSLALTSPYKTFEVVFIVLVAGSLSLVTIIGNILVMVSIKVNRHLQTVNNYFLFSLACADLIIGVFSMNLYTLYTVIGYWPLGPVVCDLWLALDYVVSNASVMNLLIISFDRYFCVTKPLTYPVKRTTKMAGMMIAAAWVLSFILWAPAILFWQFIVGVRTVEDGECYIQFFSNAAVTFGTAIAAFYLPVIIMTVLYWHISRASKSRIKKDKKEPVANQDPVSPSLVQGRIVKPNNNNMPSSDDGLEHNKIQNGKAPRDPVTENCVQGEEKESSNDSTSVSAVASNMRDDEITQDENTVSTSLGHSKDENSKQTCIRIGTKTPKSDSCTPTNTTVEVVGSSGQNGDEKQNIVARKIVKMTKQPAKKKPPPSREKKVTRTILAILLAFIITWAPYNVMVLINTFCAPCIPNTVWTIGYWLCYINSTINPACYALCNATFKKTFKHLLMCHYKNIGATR

Mu-type opioid receptor = Mu-type opioid receptor (Homo sapiens, UniProt P35372); assay: biochemical; assay type: functional
Motilin receptor = Motilin receptor (Homo sapiens, UniProt O43193)
[5] = biological target: Gamma-aminobutyric acid receptor subunit alpha-1 (Rattus norvegicus, UniProt P62813)
[6] = biological target: T6, 5-hydroxytryptamine receptor 3A (Homo sapiens, UniProt P46098); assay type: functional
T6 sequence (P46098 whole entry): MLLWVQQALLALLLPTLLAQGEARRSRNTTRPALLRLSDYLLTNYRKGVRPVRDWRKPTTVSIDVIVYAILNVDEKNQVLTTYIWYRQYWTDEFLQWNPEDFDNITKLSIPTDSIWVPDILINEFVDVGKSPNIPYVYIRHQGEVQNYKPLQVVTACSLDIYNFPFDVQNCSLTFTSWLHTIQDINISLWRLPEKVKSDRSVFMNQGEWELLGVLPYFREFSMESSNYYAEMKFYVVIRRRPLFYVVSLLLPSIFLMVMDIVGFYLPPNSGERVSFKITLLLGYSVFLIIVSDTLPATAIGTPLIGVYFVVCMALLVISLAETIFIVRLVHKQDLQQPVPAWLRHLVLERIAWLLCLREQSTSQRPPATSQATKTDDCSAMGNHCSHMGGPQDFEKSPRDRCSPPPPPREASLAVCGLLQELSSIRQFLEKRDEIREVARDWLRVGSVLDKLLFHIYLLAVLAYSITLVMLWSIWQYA
Note: assay procedure not described here.

Motilin receptor, sequence (O43193 whole entry): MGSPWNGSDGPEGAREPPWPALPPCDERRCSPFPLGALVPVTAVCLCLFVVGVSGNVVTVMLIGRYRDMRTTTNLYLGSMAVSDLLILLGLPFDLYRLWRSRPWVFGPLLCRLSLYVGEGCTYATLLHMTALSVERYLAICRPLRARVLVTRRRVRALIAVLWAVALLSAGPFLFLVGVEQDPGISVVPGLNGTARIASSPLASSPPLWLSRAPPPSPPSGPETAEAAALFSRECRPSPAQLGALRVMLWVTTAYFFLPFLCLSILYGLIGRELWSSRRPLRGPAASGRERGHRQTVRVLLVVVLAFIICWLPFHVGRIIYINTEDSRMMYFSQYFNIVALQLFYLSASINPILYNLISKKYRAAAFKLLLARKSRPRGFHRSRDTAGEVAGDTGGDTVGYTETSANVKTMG
Histamine H2 receptor, sequence (P25021 whole entry): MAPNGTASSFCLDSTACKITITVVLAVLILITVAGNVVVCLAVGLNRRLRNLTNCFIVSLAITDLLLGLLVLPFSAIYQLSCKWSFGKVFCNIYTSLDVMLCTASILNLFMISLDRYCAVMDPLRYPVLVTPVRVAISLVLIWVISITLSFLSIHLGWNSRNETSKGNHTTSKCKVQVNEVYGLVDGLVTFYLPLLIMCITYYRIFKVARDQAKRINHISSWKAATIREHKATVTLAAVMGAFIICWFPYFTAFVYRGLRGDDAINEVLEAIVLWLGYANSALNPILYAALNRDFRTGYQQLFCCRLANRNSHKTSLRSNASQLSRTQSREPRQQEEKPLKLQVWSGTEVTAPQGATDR
Mu-type opioid receptor, sequence (P35372 whole entry): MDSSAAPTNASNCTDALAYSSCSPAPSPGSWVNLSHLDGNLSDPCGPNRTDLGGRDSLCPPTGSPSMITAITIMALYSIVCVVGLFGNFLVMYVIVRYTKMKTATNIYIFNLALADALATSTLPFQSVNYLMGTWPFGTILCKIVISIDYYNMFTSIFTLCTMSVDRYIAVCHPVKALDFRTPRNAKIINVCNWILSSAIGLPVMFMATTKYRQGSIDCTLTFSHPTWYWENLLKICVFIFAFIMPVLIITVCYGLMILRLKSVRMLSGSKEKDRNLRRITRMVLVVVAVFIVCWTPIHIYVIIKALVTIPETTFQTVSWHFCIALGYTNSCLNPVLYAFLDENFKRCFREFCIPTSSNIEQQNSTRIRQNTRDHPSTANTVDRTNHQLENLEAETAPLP
Gamma-aminobutyric acid receptor subunit alpha-1, sequence (P62813 whole entry): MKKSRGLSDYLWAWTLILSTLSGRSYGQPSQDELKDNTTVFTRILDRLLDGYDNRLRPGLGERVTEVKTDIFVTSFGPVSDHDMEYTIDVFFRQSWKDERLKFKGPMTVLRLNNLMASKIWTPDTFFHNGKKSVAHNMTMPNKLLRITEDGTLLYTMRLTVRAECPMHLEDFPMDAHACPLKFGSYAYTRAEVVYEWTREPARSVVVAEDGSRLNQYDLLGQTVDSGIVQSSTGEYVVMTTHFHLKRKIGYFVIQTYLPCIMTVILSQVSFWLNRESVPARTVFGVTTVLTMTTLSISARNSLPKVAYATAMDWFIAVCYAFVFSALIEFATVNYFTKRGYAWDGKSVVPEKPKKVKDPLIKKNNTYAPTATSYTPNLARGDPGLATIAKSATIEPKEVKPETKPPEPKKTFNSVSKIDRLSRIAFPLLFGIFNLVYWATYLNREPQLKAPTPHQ

SMILES	AC50 (Histamine H2 receptor)	AC50 [1]	AC50 (Thromboxane A2 receptor)	AC50 [2]	AC50 [3]	AC50 [4]	AC50 (Mu-type opioid receptor)	AC50 (Motilin receptor)	AC50 [5]	AC50 [6]
O=C(C[S+]([O-])C(c1ccccc1)c1ccccc1)NO (stereo not drawn)	> 30 µM	> 30 µM	> 30 µM	> 30 µM	> 30 µM	> 30 µM	> 30 µM	> 30 µM	> 30 µM	> 30 µM
COc1ccc2c(c1)c(CC(=O)OCC(=O)O)c(C)n2C(=O)c1ccc(Cl)cc1 [ACEMETACIN]	> 30 µM	> 30 µM	> 30 µM	> 30 µM	> 30 µM	> 30 µM	> 30 µM	> 30 µM	> 30 µM	> 30 µM
Nc1ncnc2c1ncn2[C@@H]1O[C@H](COP(=O)(O)O)[C@@H](O)[C@H]1O [ADENOSINE PHOSPHATE]	> 30 µM	> 30 µM	> 30 µM	> 30 µM	> 30 µM	> 30 µM	> 30 µM	> 30 µM	> 30 µM	> 30 µM
COc1ccc2cccc(CCNC(C)=O)c2c1 [AGOMELATINE]	> 30 µM	> 30 µM	> 30 µM	> 10 µM	> 30 µM	> 30 µM	> 30 µM	> 10 µM	> 10 µM	> 30 µM
CC(=O)OCC(=O)[C@@]12OC3(CCCC3)O[C@@H]1C[C@H]1[C@@H]3CCC4=CC(=O)C=C[C@]4(C)[C@@]3(F)[C@@H](O)C[C@@]12C [AMCINONIDE]	> 10 µM	> 10 µM	> 10 µM	> 10 µM	> 10 µM	> 10 µM	> 30 µM	> 10 µM	> 10 µM	> 30 µM
CN1C(=O)COc2c(C(=O)NC3CN4CCC3CC4)cc(Cl)cc21 (stereo not drawn) [AZASETRON]	> 30 µM	> 30 µM	> 30 µM	> 30 µM	> 30 µM	> 30 µM	> 30 µM	> 30 µM	> 30 µM	0.0162 µM
Cc1cc2c(OCC(CNC(C)(C)C)OC(=O)c3ccccc3)cccc2[nH]1 (stereo not drawn) [BOPINDOLOL]	> 30 µM	> 30 µM	> 30 µM	3 µM	> 30 µM	> 30 µM	> 30 µM	23 µM	> 30 µM	> 30 µM
CCCCN1CCCCC1C(=O)Nc1c(C)cccc1C (stereo not drawn) [BUPIVACAINE]	> 30 µM	> 30 µM	> 30 µM	> 30 µM	> 30 µM	> 30 µM	> 30 µM	> 30 µM	> 30 µM	> 30 µM
CCC(C(=O)O)c1ccc(CC(C)C)cc1 (stereo not drawn) [BUTIBUFEN]	> 30 µM	> 30 µM	> 30 µM	> 30 µM	> 30 µM	> 30 µM	> 30 µM	> 30 µM	> 30 µM	> 30 µM
CCOC(=O)[C@H](CCc1ccccc1)N[C@H]1CCCN2CCC[C@@H](C(=O)O)N2C1=O [CILAZAPRIL]	> 30 µM	> 30 µM	> 30 µM	> 30 µM	> 30 µM	> 30 µM	> 30 µM	> 30 µM	> 30 µM	> 30 µM
CCOc1cc(N)c([N+](=O)[O-])cc1C(=O)NC1CCN(CC2CC=CCC2)CC1 (stereo not drawn) [CINITAPRIDE]	> 30 µM	> 30 µM	> 30 µM	1.3 µM	> 30 µM	> 30 µM	> 30 µM	8.1 µM	> 30 µM	22 µM
CC(C)(Oc1ccc(C2CC2(Cl)Cl)cc1)C(=O)O (stereo not drawn) [CIPROFIBRATE]	> 30 µM	> 30 µM	> 30 µM	> 30 µM	> 30 µM	> 30 µM	> 30 µM	> 30 µM	> 30 µM	> 30 µM
COC(=O)[C@H]1[C@@H](OC(=O)c2ccccc2)C[C@@H]2CC[C@H]1N2C [COCAINE]	> 30 µM	> 30 µM	> 30 µM	> 30 µM	> 30 µM	> 30 µM	> 30 µM	> 30 µM	> 30 µM	> 30 µM
Cc1c(O)c(=O)ccn1C [DEFERIPRONE]	> 30 µM	> 30 µM	> 30 µM	> 30 µM	> 30 µM	> 30 µM	> 30 µM	> 30 µM	> 30 µM	> 30 µM
CC(=O)O[C@@]12CO[C@@H]1C[C@H](O)[C@@]1(C)C(=O)[C@H](O)C3=C(C)[C@@H](OC(=O)[C@H](O)[C@@H](NC(=O)OC(C)(C)C)c4ccccc4)C[C@@](O)([C@@H](OC(=O)c4ccccc4)[C@H]21)C3(C)C [DOCETAXEL ANHYDROUS]	> 30 µM	> 30 µM	> 30 µM	> 30 µM	> 30 µM	> 30 µM	> 30 µM	> 30 µM	> 30 µM	> 30 µM
O=C(O)CCCc1ccccc1 [PHENYLBUTANOIC ACID]		> 10 µM	> 10 µM	> 30 µM	> 10 µM	> 30 µM	> 30 µM	> 10 µM	> 30 µM	> 30 µM
O=C1NCCN1CCN1CCC(c2cn(-c3ccc(F)cc3)c3ccc(Cl)cc23)CC1 [SERTINDOLE]	> 30 µM	> 30 µM	> 30 µM		> 30 µM	> 30 µM	> 30 µM	4.3 µM	> 30 µM	> 30 µM
